# In PubChem BioAssay AID1259407 (Chemical Carcinogenesis Research Information System (CCRIS), 2018):
# Activity calls are given as the source filed them. No rule for the calls is given here.
# System: CCRIS mutagenicity, Ames/micronucleus/aberration tests
# Experiment: CCRIS mutagenicity studies
compound,measurement,setting,value
C1O[C@@H]1[C@@H]1CO1,mutagenic call,"Test System: AMES SALMONELLA TYPHIMURIUM, Strain/Indicator: TA1535, Metabolic Activation: RAT, LIVER, S-9, Method: PREINCUBATION",active; positive
same,mutagenic call,"Test System: AMES SALMONELLA TYPHIMURIUM, Strain/Indicator: TA1535, Metabolic Activation: RAT, LIVER, S-9, Method: STANDARD PLATE",active; positive
same,mutagenic call,"Test System: AMES SALMONELLA TYPHIMURIUM, Strain/Indicator: TA1537, Metabolic Activation: HAMSTER, LIVER, S-9, AROCLOR 1254, Method: PREINCUBATION",inactive; negative
same,mutagenic call,"Test System: AMES SALMONELLA TYPHIMURIUM, Strain/Indicator: TA1537, Metabolic Activation: HAMSTER, LIVER, S-9, AROCLOR 1254, Method: STANDARD PLATE",inactive; negative
same,mutagenic call,"Test System: AMES SALMONELLA TYPHIMURIUM, Strain/Indicator: TA1537, Metabolic Activation: HAMSTER, LIVER, S-9, Method: PREINCUBATION",inactive; negative
same,mutagenic call,"Test System: AMES SALMONELLA TYPHIMURIUM, Strain/Indicator: TA1537, Metabolic Activation: HAMSTER, LIVER, S-9, Method: STANDARD PLATE",inactive; negative
same,mutagenic call,"Test System: AMES SALMONELLA TYPHIMURIUM, Strain/Indicator: TA1537, Metabolic Activation: MOUSE, LIVER, S-9, AROCLOR 1254, Method: PREINCUBATION",inactive; negative
same,mutagenic call,"Test System: AMES SALMONELLA TYPHIMURIUM, Strain/Indicator: TA1537, Metabolic Activation: MOUSE, LIVER, S-9, AROCLOR 1254, Method: STANDARD PLATE",inactive; negative
same,mutagenic call,"Test System: AMES SALMONELLA TYPHIMURIUM, Strain/Indicator: TA1537, Metabolic Activation: MOUSE, LIVER, S-9, Method: PREINCUBATION",inactive; negative
same,mutagenic call,"Test System: AMES SALMONELLA TYPHIMURIUM, Strain/Indicator: TA1537, Metabolic Activation: MOUSE, LIVER, S-9, Method: STANDARD PLATE",inactive; negative
same,mutagenic call,"Test System: AMES SALMONELLA TYPHIMURIUM, Strain/Indicator: TA1537, Metabolic Activation: NONE, Method: PREINCUBATION",inactive; negative
same,mutagenic call,"Test System: AMES SALMONELLA TYPHIMURIUM, Strain/Indicator: TA1537, Metabolic Activation: NONE, Method: STANDARD PLATE",inactive; negative
same,mutagenic call,"Test System: AMES SALMONELLA TYPHIMURIUM, Strain/Indicator: TA1537, Metabolic Activation: RAT, LIVER, S-9, AROCLOR 1254, Method: PREINCUBATION",inactive; negative
same,mutagenic call,"Test System: AMES SALMONELLA TYPHIMURIUM, Strain/Indicator: TA1537, Metabolic Activation: RAT, LIVER, S-9, Method: PREINCUBATION",inactive; negative
same,mutagenic call,"Test System: AMES SALMONELLA TYPHIMURIUM, Strain/Indicator: TA1537, Metabolic Activation: RAT, LIVER, S-9, Method: STANDARD PLATE",inactive; negative
same,mutagenic call,"Test System: AMES SALMONELLA TYPHIMURIUM, Strain/Indicator: TA1538, Metabolic Activation: HAMSTER, LIVER, S-9, AROCLOR 1254, Method: PREINCUBATION",inactive; negative
same,mutagenic call,"Test System: AMES SALMONELLA TYPHIMURIUM, Strain/Indicator: TA1538, Metabolic Activation: HAMSTER, LIVER, S-9, AROCLOR 1254, Method: STANDARD PLATE",inactive; negative
same,mutagenic call,"Test System: AMES SALMONELLA TYPHIMURIUM, Strain/Indicator: TA1538, Metabolic Activation: HAMSTER, LIVER, S-9, Method: PREINCUBATION",inactive; negative
same,mutagenic call,"Test System: AMES SALMONELLA TYPHIMURIUM, Strain/Indicator: TA1538, Metabolic Activation: HAMSTER, LIVER, S-9, Method: STANDARD PLATE",inactive; negative
same,mutagenic call,"Test System: AMES SALMONELLA TYPHIMURIUM, Strain/Indicator: TA1538, Metabolic Activation: MOUSE, LIVER, S-9, AROCLOR 1254, Method: PREINCUBATION",inactive; negative
same,mutagenic call,"Test System: AMES SALMONELLA TYPHIMURIUM, Strain/Indicator: TA1538, Metabolic Activation: MOUSE, LIVER, S-9, AROCLOR 1254, Method: STANDARD PLATE",inactive; negative
same,mutagenic call,"Test System: AMES SALMONELLA TYPHIMURIUM, Strain/Indicator: TA1538, Metabolic Activation: MOUSE, LIVER, S-9, Method: PREINCUBATION",inactive; negative
same,mutagenic call,"Test System: AMES SALMONELLA TYPHIMURIUM, Strain/Indicator: TA1538, Metabolic Activation: MOUSE, LIVER, S-9, Method: STANDARD PLATE",inactive; negative
same,mutagenic call,"Test System: AMES SALMONELLA TYPHIMURIUM, Strain/Indicator: TA1538, Metabolic Activation: NONE, Method: PREINCUBATION",inactive; negative
same,mutagenic call,"Test System: AMES SALMONELLA TYPHIMURIUM, Strain/Indicator: TA1538, Metabolic Activation: NONE, Method: STANDARD PLATE",inactive; negative
same,mutagenic call,"Test System: AMES SALMONELLA TYPHIMURIUM, Strain/Indicator: TA1538, Metabolic Activation: RAT, LIVER, S-9, AROCLOR 1254, Method: PREINCUBATION",inactive; negative
same,mutagenic call,"Test System: AMES SALMONELLA TYPHIMURIUM, Strain/Indicator: TA1538, Metabolic Activation: RAT, LIVER, S-9, Method: PREINCUBATION",inactive; negative
same,mutagenic call,"Test System: AMES SALMONELLA TYPHIMURIUM, Strain/Indicator: TA1538, Metabolic Activation: RAT, LIVER, S-9, Method: STANDARD PLATE",inactive; negative
same,mutagenic call,"Test System: E. COLI, Strain/Indicator: WP2 UVRA, Metabolic Activation: HAMSTER, LIVER, S-9, AROCLOR 1254, Method: STANDARD PLATE",inactive; negative
same,mutagenic call,"Test System: E. COLI, Strain/Indicator: WP2 UVRA, Metabolic Activation: HAMSTER, LIVER, S-9, Method: PREINCUBATION",inactive; negative
same,mutagenic call,"Test System: E. COLI, Strain/Indicator: WP2 UVRA, Metabolic Activation: MOUSE, LIVER, S-9, AROCLOR 1254, Method: STANDARD PLATE",inactive; negative
same,mutagenic call,"Test System: E. COLI, Strain/Indicator: WP2 UVRA, Metabolic Activation: MOUSE, LIVER, S-9, Method: STANDARD PLATE",inactive; negative
same,mutagenic call,"Test System: E. COLI, Strain/Indicator: WP2 UVRA, Metabolic Activation: NONE, Method: STANDARD PLATE",inactive; negative
same,mutagenic call,"Test System: E. COLI, Strain/Indicator: WP2 UVRA, Metabolic Activation: RAT, LIVER, S-9, AROCLOR 1254, Method: PREINCUBATION",inactive; negative
same,mutagenic call,"Test System: E. COLI, Strain/Indicator: WP2 UVRA, Metabolic Activation: RAT, LIVER, S-9, Method: PREINCUBATION",inactive; negative
same,mutagenic call,"Test System: E. COLI, Strain/Indicator: WP2 UVRA, Metabolic Activation: RAT, LIVER, S-9, Method: STANDARD PLATE",inactive; negative
